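Protocol summary: plate cells (96-well), add compound at 5 concentrations, incubate 48 h, interpolate endpoints linearly. Abbreviation: GI50, concentration required for 50% inhibition of growth.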 Active and inactive are the calls of the source. No stated cut-off is given here; in the data, active = GI50 up to about 1.1 µM and inactive = higher.
What was measured:
Assay in all cases: NCI anticancer screen, dose series, 48 h
[1] = system: OVCAR-3
[2] = system: HCC 2998
[3] = system: SK-MEL-2
[4] = system: SF-268
[5] = system: NCI-H23
[6] = system: HL-60
[7] = system: A549
[8] = system: SNB-75
[9] = system: COLO 205
[10] = system: ACHN
[11] = system: CCRF-CEM
[12] = system: SW-620
[13] = system: HOP-92
[14] = system: M14
[15] = system: OVCAR-4
[16] = system: CAKI-1

| Compound | GI50 [1] | GI50 [2] | GI50 [3] | GI50 [4] | GI50 [5] | GI50 [6] | GI50 [7] | GI50 [8] | GI50 [9] | GI50 [10] | GI50 [11] | GI50 [12] | GI50 [13] | GI50 [14] | GI50 [15] | GI50 [16] |
| --- | --- | --- | --- | --- | --- | --- | --- | --- | --- | --- | --- | --- | --- | --- | --- | --- |
| Nc1nc(O)c2c(ncn2CCO)n1 | > 100 µM (inactive) | > 100 µM (inactive) | > 100 µM (inactive) | > 100 µM (inactive) | > 100 µM (inactive) | > 100 µM (inactive) | > 100 µM (inactive) | > 100 µM (inactive) | > 100 µM (inactive) | > 100 µM (inactive) | > 100 µM (inactive) | > 100 µM (inactive) | > 100 µM (inactive) | – | – | – |
| NC1=NS(=O)(=O)Nc2nc(-c3ccccc3)c(-c3ccccc3)nc21 | > 100 µM (inactive) | > 100 µM (inactive) | > 100 µM (inactive) | > 100 µM (inactive) | > 100 µM (inactive) | > 100 µM (inactive) | > 100 µM (inactive) | > 100 µM (inactive) | > 100 µM (inactive) | > 100 µM (inactive) | > 100 µM (inactive) | > 100 µM (inactive) | > 100 µM (inactive) | > 100 µM (inactive) | > 100 µM (inactive) | – |
| CCc1nc2c(O)ccc(O)c2nc1C | 14.7 µM (inactive) | 24.6 µM (inactive) | 18 µM (inactive) | 18.7 µM (inactive) | 18.6 µM (inactive) | 2.93 µM (inactive) | 21.8 µM (inactive) | 20.8 µM (inactive) | 2.53 µM (inactive) | 10.7 µM (inactive) | 2.9 µM (inactive) | 2.15 µM (inactive) | 5.64 µM (inactive) | 15 µM (inactive) | 6.75 µM (inactive) | 18.1 µM (inactive) |
| Cc1cc(NCCCCCCCCNc2cc(C)nc3cc(N)ccc23)c2ccc(N)cc2n1 | 14.9 µM (inactive) | 15.1 µM (inactive) | 13.6 µM (inactive) | 26.2 µM (inactive) | 14.3 µM (inactive) | 0.566 µM (active) | 18.3 µM (inactive) | 16.4 µM (inactive) | 6.4 µM (inactive) | 37.7 µM (inactive) | 3.13 µM (inactive) | – | – | 16.7 µM (inactive) | 17.3 µM (inactive) | 46.8 µM (inactive) |
| O=c1c2cccnc2ncn1CCN1CCCCC1 | > 100 µM (inactive) | > 100 µM (inactive) | > 100 µM (inactive) | > 100 µM (inactive) | > 100 µM (inactive) | – | > 100 µM (inactive) | > 100 µM (inactive) | > 100 µM (inactive) | > 100 µM (inactive) | > 100 µM (inactive) | > 100 µM (inactive) | > 100 µM (inactive) | > 100 µM (inactive) | > 100 µM (inactive) | > 100 µM (inactive) |
| CC(C)(C)c1cc2c3c(c1)C(C(F)(F)F)(C(F)(F)F)O[Te]3(C)OC2(C(F)(F)F)C(F)(F)F | > 100 µM (inactive) | > 100 µM (inactive) | > 100 µM (inactive) | > 100 µM (inactive) | > 100 µM (inactive) | > 100 µM (inactive) | > 100 µM (inactive) | – | > 100 µM (inactive) | > 100 µM (inactive) | > 100 µM (inactive) | > 100 µM (inactive) | – | > 100 µM (inactive) | > 100 µM (inactive) | > 100 µM (inactive) |
| Cn1ccc(=NS(=O)(=O)c2ccccc2)cc1 | > 100 µM (inactive) | > 100 µM (inactive) | > 100 µM (inactive) | > 100 µM (inactive) | > 100 µM (inactive) | > 100 µM (inactive) | > 100 µM (inactive) | > 100 µM (inactive) | > 100 µM (inactive) | > 100 µM (inactive) | > 100 µM (inactive) | > 100 µM (inactive) | > 100 µM (inactive) | – | – | – |
| COC(=O)/C(C#N)=C1\CCc2ccccc21 | > 100 µM (inactive) | > 100 µM (inactive) | > 100 µM (inactive) | > 100 µM (inactive) | > 100 µM (inactive) | > 100 µM (inactive) | > 100 µM (inactive) | > 100 µM (inactive) | > 100 µM (inactive) | > 100 µM (inactive) | > 100 µM (inactive) | > 100 µM (inactive) | > 100 µM (inactive) | > 100 µM (inactive) | > 100 µM (inactive) | > 100 µM (inactive) |
| CC1NS(=O)(=O)N(C)C1=O (stereo unspecified) | > 100 µM (inactive) | > 100 µM (inactive) | > 100 µM (inactive) | > 100 µM (inactive) | > 100 µM (inactive) | > 100 µM (inactive) | > 100 µM (inactive) | 81.8 µM (inactive) | – | > 100 µM (inactive) | > 100 µM (inactive) | > 100 µM (inactive) | > 100 µM (inactive) | > 100 µM (inactive) | > 100 µM (inactive) | > 100 µM (inactive) |
| Cc1ccc(C2(O)CC(c3ccc([N+](=O)[O-])o3)=NN2C(=O)COc2ccccc2Cl)cc1 (stereo unspecified) | 3.94 µM (inactive) | 10.4 µM (inactive) | 8.07 µM (inactive) | 10.5 µM (inactive) | 12.4 µM (inactive) | 2.84 µM (inactive) | 18.1 µM (inactive) | 15.3 µM (inactive) | 3.78 µM (inactive) | 5.08 µM (inactive) | 5.45 µM (inactive) | 6.7 µM (inactive) | 27.4 µM (inactive) | 8.45 µM (inactive) | 17.3 µM (inactive) | 19.4 µM (inactive) |
| COC(=O)C(=C\Sc1ccccc1)/C=C/C(=O)OC(C)(C)C | 5.25 µM (inactive) | 10.1 µM (inactive) | 12 µM (inactive) | 14.9 µM (inactive) | 17.1 µM (inactive) | 1.48 µM (inactive) | 18.3 µM (inactive) | 14 µM (inactive) | 5.3 µM (inactive) | 7.23 µM (inactive) | 1.89 µM (inactive) | 3.8 µM (inactive) | 4.4 µM (inactive) | 7.78 µM (inactive) | 15 µM (inactive) | 3.87 µM (inactive) |
| COc1cc(CNc2cnc3cc(N)ccc3n2)cc(OC)c1OC | 12.6 µM (inactive) | 35.1 µM (inactive) | 1.14 µM (inactive) | > 100 µM (inactive) | 28.5 µM (inactive) | 7.21 µM (inactive) | 44.6 µM (inactive) | 31.6 µM (inactive) | 22.4 µM (inactive) | 66.1 µM (inactive) | 31.4 µM (inactive) | 20 µM (inactive) | 58.5 µM (inactive) | 16.4 µM (inactive) | > 100 µM (inactive) | 34.7 µM (inactive) |
| COc1ccc2nc3c(C(=O)NCCN(C)C)cccc3nc2c1 | 10.2 µM (inactive) | 6.76 µM (inactive) | 6.21 µM (inactive) | 7.36 µM (inactive) | 4.73 µM (inactive) | 4.23 µM (inactive) | 4.28 µM (inactive) | 7.35 µM (inactive) | 4.28 µM (inactive) | 3.94 µM (inactive) | 5.55 µM (inactive) | 3.1 µM (inactive) | 4.34 µM (inactive) | 5.56 µM (inactive) | 6.58 µM (inactive) | 3.75 µM (inactive) |
| N#Cc1c2nc3ccccc3nc2n2ccccc12 | > 100 µM (inactive) | > 100 µM (inactive) | > 100 µM (inactive) | > 100 µM (inactive) | > 100 µM (inactive) | > 100 µM (inactive) | > 100 µM (inactive) | > 100 µM (inactive) | > 100 µM (inactive) | > 100 µM (inactive) | > 100 µM (inactive) | > 100 µM (inactive) | – | > 100 µM (inactive) | > 100 µM (inactive) | > 100 µM (inactive) |
| CCOC(=O)CN.CCOC(=O)Nc1ccc(S(=O)(=O)OC)cc1.CCOC(=O)Nc1ccc(S(=O)(=O)OC)cc1 | > 50 µM (inactive) | > 50 µM (inactive) | > 50 µM (inactive) | > 50 µM (inactive) | > 50 µM (inactive) | > 50 µM (inactive) | > 50 µM (inactive) | > 50 µM (inactive) | > 50 µM (inactive) | > 50 µM (inactive) | > 50 µM (inactive) | 7.83 µM (inactive) | > 50 µM (inactive) | > 50 µM (inactive) | > 50 µM (inactive) | > 50 µM (inactive) |
| C#CCOCn1cnc2c(Sc3c([N+](=O)[O-])ncn3C)ncnc21 | > 100 µM (inactive) | > 100 µM (inactive) | > 100 µM (inactive) | > 100 µM (inactive) | > 100 µM (inactive) | > 100 µM (inactive) | > 100 µM (inactive) | 22.8 µM (inactive) | > 100 µM (inactive) | > 100 µM (inactive) | 97.7 µM (inactive) | > 100 µM (inactive) | > 100 µM (inactive) | > 100 µM (inactive) | 87.5 µM (inactive) | > 100 µM (inactive) |
| CC12OC3CC(O1)C1(C=O)C4CCC5(C)C(c6ccc(=O)oc6)CCC5(O)C4CCC1(C3)O2 (stereo unspecified) | 0.13 µM (active) | 0.56 µM (active) | 0.268 µM (active) | 0.103 µM (active) | – | 0.189 µM (active) | 0.0611 µM (active) | 0.252 µM (active) | 0.483 µM (active) | 0.0476 µM (active) | 0.0735 µM (active) | 0.177 µM (active) | 0.339 µM (active) | 0.242 µM (active) | 0.155 µM (active) | 0.207 µM (active) |
| Cc1ccc(O)c(C(=O)CCCC(=O)c2cc(C)ccc2O)c1 | – | 0.152 µM (active) | > 100 µM (inactive) | > 100 µM (inactive) | > 100 µM (inactive) | 27.4 µM (inactive) | – | 81.5 µM (inactive) | > 100 µM (inactive) | > 100 µM (inactive) | > 100 µM (inactive) | 30.2 µM (inactive) | 61 µM (inactive) | > 100 µM (inactive) | 74.5 µM (inactive) | > 100 µM (inactive) |

Reference: ChEMBL document CHEMBL1201862, “PubChem BioAssay data set” (2004)
